The term pIC50 denotes −log10 of the IC50, conventionally taken in molar units.

These results are taken from patent US20240376091A1, “THIADIAZOLEAMIDE DERIVATIVES AND THEIR APPLICATIONS” (ZHEJIANG UNIVERSITY, priority 2021, published 2024).

The target of one test is T1, LBP of AR-LBD (Rattus norvegicus, UniProt P15207).
T1 construct: a buffer containing AR-LBD (His-GST) and fluorescence ligand; purchased
T1 sequence (P15207 651-882 limits assumed): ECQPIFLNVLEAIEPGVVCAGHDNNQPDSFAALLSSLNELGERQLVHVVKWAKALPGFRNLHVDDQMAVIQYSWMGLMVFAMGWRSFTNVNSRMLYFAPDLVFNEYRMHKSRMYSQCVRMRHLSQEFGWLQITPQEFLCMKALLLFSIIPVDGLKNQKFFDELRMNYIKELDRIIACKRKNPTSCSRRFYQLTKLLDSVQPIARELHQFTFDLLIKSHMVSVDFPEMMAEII
In words: AR competitive ligand binding assay (PolarScreen Androgen Receptor Competitor Assay Kit, fluorescence polarization). The conditions noted are these: A-1 at 12.5 μM-200 μM; 4 hours incubation. The procedure: Detection principles: The binding affinities of compounds to the LBP of AR-LBD were evaluated using PolarScreen™ Androgen Receptor Competitor Assay Kit. […] The addition of a test compound to a microporous plate containing the binary complex would reduce fluorescence polarization values if the compound could target LBP of AR-LBD by competing the fluorescence ligand.
After 4 hours incubation in darkness at room temperature, the fluorescence polarization values were determined using a multifunctional microplate reader.

Another test addresses T2, FL-AR^V684A (Homo sapiens, UniProt P10275, V685A).
T2 construct: toward full-length (FL)-AR^WT and FL-AR^V684A; expressed in transfected cells; host or cells: PC3
T2 sequence (P10275 1-920 V685A): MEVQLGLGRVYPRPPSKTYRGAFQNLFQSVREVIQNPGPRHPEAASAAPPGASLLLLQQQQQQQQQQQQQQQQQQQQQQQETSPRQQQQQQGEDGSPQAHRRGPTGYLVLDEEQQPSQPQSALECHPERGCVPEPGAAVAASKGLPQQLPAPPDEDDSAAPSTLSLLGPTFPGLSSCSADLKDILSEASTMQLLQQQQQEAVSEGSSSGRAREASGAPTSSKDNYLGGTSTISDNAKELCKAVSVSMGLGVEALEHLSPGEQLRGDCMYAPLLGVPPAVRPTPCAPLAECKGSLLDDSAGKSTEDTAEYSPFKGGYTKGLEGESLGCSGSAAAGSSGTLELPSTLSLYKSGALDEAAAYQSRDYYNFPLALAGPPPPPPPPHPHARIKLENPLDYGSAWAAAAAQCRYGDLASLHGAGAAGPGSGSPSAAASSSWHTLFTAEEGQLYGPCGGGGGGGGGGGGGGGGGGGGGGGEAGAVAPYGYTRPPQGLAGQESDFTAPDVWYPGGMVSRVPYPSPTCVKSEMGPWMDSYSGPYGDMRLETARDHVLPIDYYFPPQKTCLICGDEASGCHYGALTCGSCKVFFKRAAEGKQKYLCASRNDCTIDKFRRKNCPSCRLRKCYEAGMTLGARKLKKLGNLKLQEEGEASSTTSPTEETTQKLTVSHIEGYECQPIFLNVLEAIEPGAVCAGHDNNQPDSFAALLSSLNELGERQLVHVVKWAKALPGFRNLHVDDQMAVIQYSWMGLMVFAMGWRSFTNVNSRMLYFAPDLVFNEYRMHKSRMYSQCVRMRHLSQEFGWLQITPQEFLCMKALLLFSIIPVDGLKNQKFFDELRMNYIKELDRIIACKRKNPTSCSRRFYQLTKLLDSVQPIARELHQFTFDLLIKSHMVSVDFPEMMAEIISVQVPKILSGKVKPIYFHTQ
In words: Luciferase reporter assay in PC3 cells, AR V684A. Type of test: cell-based. The conditions noted are these: read-out: IC50 toward FL-AR^V684A. Here is the method:
(§1) Detection principles: A reporter system for detecting the activities of firefly luciferase. To quantitatively detect the interaction between transcription factors and target promoters, the fluorescent intensities are detected to quantitatively evaluate the activities of firefly luciferase.
(§2) Methods: PC3 cells (no endogenous AR) treated with DMEM media supplemented with 5% CSS for 48 hours. Then, the PC3 cells (1.2×10^4/well) were seeded into 96-well plates. After 16 hours, the PC3 cells were transfected with 20 ng/well plasmid and incubated for 20 min at room temperature. After 1 day incubation, the media in the wells was replaced, followed by the addition of various concentrations of compounds. After 48 hours, the culture medium was discarded and the cells were washed with 100 μL PBS, followed by addition of 30 μL 1×PLB and the 96-well plates was shaken on a shaker for 20 min to ensure complete lysis of the cells. Then, the cell lysis supernatant (20 μL/well) was transferred to a white opaque 96-well, and addition of 30 μL Luciferase Assay Reagent II to each well. Then, the fluorescent intensities of firefly luciferase were evaluated. Afterwards, 30 μL Stop&Glo Reagant was added to the wells, and the fluorescent intensities of […] evaluated.
A general note: Reporter assays use an easily measured gene product as a stand-in for the process of interest.

A further test has as its target T3, FL-AR^WT (Homo sapiens, UniProt P10275).
T3 construct: toward full-length (FL)-AR^WT and FL-AR^V684A; expressed in transfected cells; host or cells: PC3
T3 sequence (P10275 1-920): T2 sequence (P10275 1-920 V685A) with A685V
In words: Luciferase reporter assay in PC3 cells, wild type AR. Type of test: cell-based. The settings on record: read-out: IC50 toward FL-AR^WT. Here is the method: as §1, §2

Changes are numbered by the printed parent chain. pIC50: −log10 of the molar value.

In the case of `CC(=O)Cc1nsc(NC(=O)c2cc(-c3cccc(C(F)(F)F)c3)oc2C)n1` [Compound A-1, 2-Methyl-N-(3-(2-oxopropyl)-1,2,4-thiadiazol-5-yl)-5-(3-(trifluoromethyl)phenyl)furan-3-carboxamide], at LBP of AR-LBD, the “binding to the AR LBP” value is on record as “did not bind to the AR LBP”. Moreover, the pIC50 on FL-AR^V684A is 7.22; on FL-AR^WT it was 5.74.
